Target: Sodium channel protein type 5 subunit alpha (Homo sapiens, UniProt Q14524)
Assay: Inhibition of human Nav1.5 expressed in HEK293 cells assessed as reduction in peak inward current by ionworks quattro electrophysiology assay

Sequence of Sodium channel protein type 5 subunit alpha (Q14524 whole entry): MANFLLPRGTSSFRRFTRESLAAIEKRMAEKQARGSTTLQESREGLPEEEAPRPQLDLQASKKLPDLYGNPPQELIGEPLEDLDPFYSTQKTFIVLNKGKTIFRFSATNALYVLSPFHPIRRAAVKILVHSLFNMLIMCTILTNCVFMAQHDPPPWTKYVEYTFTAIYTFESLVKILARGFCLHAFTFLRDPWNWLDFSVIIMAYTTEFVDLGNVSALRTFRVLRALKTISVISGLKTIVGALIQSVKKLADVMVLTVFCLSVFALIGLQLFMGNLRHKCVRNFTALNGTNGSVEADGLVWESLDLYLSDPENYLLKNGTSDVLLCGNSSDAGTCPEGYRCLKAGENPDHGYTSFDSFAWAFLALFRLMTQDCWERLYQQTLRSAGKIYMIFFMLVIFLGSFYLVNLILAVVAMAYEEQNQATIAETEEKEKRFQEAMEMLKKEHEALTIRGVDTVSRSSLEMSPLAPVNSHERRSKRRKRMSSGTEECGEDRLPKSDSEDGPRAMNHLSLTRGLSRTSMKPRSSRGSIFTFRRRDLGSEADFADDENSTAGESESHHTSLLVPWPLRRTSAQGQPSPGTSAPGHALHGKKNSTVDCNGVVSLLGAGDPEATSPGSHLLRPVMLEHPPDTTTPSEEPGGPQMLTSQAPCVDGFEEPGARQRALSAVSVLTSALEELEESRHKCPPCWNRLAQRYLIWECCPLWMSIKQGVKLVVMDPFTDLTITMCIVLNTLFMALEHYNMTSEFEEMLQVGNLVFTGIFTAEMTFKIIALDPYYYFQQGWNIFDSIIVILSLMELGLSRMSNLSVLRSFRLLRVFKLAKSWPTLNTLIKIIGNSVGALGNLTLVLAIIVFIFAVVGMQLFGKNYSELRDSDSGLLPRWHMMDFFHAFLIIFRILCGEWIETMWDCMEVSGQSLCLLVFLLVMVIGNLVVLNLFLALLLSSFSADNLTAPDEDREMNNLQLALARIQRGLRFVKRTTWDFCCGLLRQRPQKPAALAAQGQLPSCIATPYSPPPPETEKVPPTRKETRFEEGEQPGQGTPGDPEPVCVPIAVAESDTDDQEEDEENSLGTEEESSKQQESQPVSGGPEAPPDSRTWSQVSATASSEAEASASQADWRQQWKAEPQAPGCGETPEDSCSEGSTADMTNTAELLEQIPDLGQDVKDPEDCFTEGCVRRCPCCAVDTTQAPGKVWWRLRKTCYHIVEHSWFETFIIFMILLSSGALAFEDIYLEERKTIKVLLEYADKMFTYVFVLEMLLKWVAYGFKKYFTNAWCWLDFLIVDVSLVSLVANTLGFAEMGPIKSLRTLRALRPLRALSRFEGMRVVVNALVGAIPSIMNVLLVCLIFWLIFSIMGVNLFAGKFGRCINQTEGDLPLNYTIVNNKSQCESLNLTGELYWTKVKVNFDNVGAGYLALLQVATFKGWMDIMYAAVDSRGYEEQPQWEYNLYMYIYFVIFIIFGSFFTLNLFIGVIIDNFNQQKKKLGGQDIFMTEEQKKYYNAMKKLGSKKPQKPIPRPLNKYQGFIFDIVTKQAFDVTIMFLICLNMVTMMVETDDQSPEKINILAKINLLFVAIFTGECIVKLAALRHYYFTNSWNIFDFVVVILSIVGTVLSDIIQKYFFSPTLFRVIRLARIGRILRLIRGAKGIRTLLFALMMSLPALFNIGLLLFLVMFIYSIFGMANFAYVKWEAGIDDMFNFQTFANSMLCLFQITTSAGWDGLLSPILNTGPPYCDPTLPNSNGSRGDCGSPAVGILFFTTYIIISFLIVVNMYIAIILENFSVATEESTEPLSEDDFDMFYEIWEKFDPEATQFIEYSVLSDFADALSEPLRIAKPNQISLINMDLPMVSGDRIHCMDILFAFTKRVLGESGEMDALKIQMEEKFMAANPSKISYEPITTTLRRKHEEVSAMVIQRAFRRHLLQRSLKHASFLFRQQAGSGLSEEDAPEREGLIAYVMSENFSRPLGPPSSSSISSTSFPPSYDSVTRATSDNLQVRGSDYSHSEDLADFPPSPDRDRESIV

SMILES	IC50 [µM]
COc1cc(-c2cccc(F)c2)c(Cl)cc1-c1nccc2cc(S(=O)(=O)Nc3ncon3)ccc12 [1-(2-chloro-3'-fluoro-5-methoxy-4-biphenylyl)-N-1,2,4-oxadiazol-3-yl-6-isoquinolinesulfonamide]	> 10
COc1cc(-c2cccc(F)c2)c(Cl)cc1-c1ncc(O)c2cc(S(=O)(=O)Nc3ccon3)ccc12 [1-(2-chloro-3'-fluoro-5-methoxy-4-biphenylyl)-4-hydroxy-N-3-isoxazolyl-6-isoquinolinesulfonamide]	> 10
COc1cc(-c2cccc(Cl)c2)c(F)cc1-c1nccc2cc(S(=O)(=O)Nc3ccon3)ccc12 [1-(3'-chloro-2-fluoro-5-methoxy-4-biphenylyl)-N-3-isoxazolyl-6-isoquinolinesulfonamide]	> 10
COc1cc(-c2cccc(F)c2)c(Cl)cc1-c1ncnc2cc(S(=O)(=O)Nc3ccon3)ccc12 [4-(2-chloro-3'-fluoro-5-methoxy-4-biphenylyl)-N-3-isoxazolyl-7-quinazolinesulfonamide]	> 10
COc1cc(-c2cccc(F)c2)c(Cl)cc1-c1nccc2cc(S(=O)(=O)Nc3cccnn3)ccc12 [1-(2-chloro-3'-fluoro-5-methoxy-4-biphenylyl)-N-3-pyridazinyl-6-isoquinolinesulfonamide]	> 10
COc1cc(-c2cccc(F)c2)c(Cl)cc1-c1nn(C)c(=O)c2cc(S(=O)(=O)Nc3ccon3)ccc12 [1-(2-chloro-3'-fluoro-5-methoxy-4-biphenylyl)-N-3-isoxazolyl-3-methyl-4-oxo-3,4-dihydro-6-phthalazinesulfonamide]	> 10
